Measured values reported in patent US6362176B1, “Compositions, methods and kits for treating rheumatoid arthritis” (Super Gen, Inc., priority 1998, dated 2002).

Columns and labels:
individuals with RA = conditions: cited from earlier work
[1] = cited from earlier work
RA patients [2] = conditions: bi-weekly pentostatin, months 1 and 3; cited from earlier work
RA patients [3] = test: pentostatin monotherapy on a monthly schedule (inventor); assay type: in vivo, human; conditions: treatment continued past the flare
Description: When the treatment was continued past the flare, approximately a third of the patients entered a pharmaceutical free remission for a period of weeks or months.

CLL; hairy cell leukemia = conditions: cited from earlier work
[4] = 4 mg/M^2 once a week x3 or 4 followed by once every three to four weeks

CN(Cc1cnc2nc(N)nc(N)c2n1)c1ccc(C(=O)N[C@@H](CCC(=O)O)C(=O)O)cc1 [methotrexate, N-[4-[[(2,4-diamino-6-pteridinyl)methyl]methylamino]benzoyl]-L-glutamic acid]
patients remaining on methotrexate for two or more years (individuals with RA; in vivo): Up to 70%
time to worsening of RA after monotherapy is discontinued (individuals with RA; in vivo): three to six
patients expected to obtain at least partial relief (individuals with RA; methotrexate monotherapy, recent studies): about 70%
individuals still on the drug five years after starting (individuals with RA; methotrexate monotherapy): over 50%
individuals with RA getting some favorable response (individuals with RA; methotrexate monotherapy): Approximately 70%
patients entering remission as defined by ACR criteria (individuals with RA; methotrexate monotherapy): less than 30%
time of peak serum concentrations ([1]; intramuscular administration): thirty to sixty
absorption ([1]; parenteral administration): generally complete absorption

OC[C@H]1O[C@@H](n2cnc3c2NC=NC[C@H]3O)C[C@@H]1O [pentostatin, 2′-deoxycoformycin]
patients with significant flare (duration of morning stiffness, tender and swollen joints) (RA patients [2]): 9 of 11
patients entering a pharmaceutical free remission for weeks or months (RA patients [3]): approximately a third
efficacy in hairy cell leukemia (CLL; hairy cell leukemia; [4]): effective in inducing remission in hairy cell leukemia
toxicity at even lower doses (CLL; hairy cell leukemia; [4]): no toxicity
toxicity at lower doses (CLL; hairy cell leukemia; 5 mg/M^2 on two successive days): mild with transient leukopenia, nausea and lethargy or somnolence
clinical response in CLL (CLL; hairy cell leukemia; doses of 1.0 to 13.5 mg/kg): cytoreduction but no clinically meaningful remission in CLL
toxicity at very high doses (CLL; hairy cell leukemia; very high doses): substantial and may include renal failure secondary to acute tubular necrosis, central nervous system toxicity (seizures), pulmonary edema, and keratoconjunctivitis
